Measured values reported in BindingDB's records for patent US12357603 (Bayer Aktiengesellschaft; The Broad Institute, Inc., 2025).

What was measured:
[1] = biological target: Histone acetyltransferase KAT6A (UniProt Q92794); assay: Kat6a Activity Assay
Description: Recombinant human His-tagged Kat6a protein (amino acids 194-810), was purified in-house from Baculovirus-infected insect cells (Sf9). Histone H4 peptide (amino acids 1-24, […]-VLRD-K(Btn)-amide), which was used as substrate, was synthesized by Biosyntan GmbH, Berlin, Germany. Acetyl Coenzyme A was purchased from Sigma-Aldrich (#A-2056).Kat6a was incubated for 60 mins at 22° C. in the presence of different concentrations of test substances (0 μM, and within the range 0.01-20 μM) in assay buffer [25 mM Tris/HCl pH 8, 1 mM EGTA, 2.5 mM Glutathion, 0.02% Chicken Albumin, 0.05% Pluronic F127, 25 mM NaCl, 220 nM H4 peptide and 600 nM Acetyl Coenzym A].The reaction was stopped by addition of Detection Solution (25 mM HEPES pH 7.5, 0.1% BSA, 22 nM SAXL665 (Cisbio #610SAXLE), 100 μM Anacardic Acid (Enzo #ALX-270-381), 1 nM Anti-Histone H4 (ACETYL K8) Antibody (ABCAM #AB15823) and 0.5 nM Anti-Rabbit IgG Eu (Perkin Elmer #AD0083).

[2] = biological target: T1, Histone acetyltransferase KAT6B [431-2073] (Homo sapiens (Human), UniProt Q8WYB5); assay: Kat6b Activity Assay
T1 construct: 431-2073
T1 sequence (Q8WYB5 431-2073): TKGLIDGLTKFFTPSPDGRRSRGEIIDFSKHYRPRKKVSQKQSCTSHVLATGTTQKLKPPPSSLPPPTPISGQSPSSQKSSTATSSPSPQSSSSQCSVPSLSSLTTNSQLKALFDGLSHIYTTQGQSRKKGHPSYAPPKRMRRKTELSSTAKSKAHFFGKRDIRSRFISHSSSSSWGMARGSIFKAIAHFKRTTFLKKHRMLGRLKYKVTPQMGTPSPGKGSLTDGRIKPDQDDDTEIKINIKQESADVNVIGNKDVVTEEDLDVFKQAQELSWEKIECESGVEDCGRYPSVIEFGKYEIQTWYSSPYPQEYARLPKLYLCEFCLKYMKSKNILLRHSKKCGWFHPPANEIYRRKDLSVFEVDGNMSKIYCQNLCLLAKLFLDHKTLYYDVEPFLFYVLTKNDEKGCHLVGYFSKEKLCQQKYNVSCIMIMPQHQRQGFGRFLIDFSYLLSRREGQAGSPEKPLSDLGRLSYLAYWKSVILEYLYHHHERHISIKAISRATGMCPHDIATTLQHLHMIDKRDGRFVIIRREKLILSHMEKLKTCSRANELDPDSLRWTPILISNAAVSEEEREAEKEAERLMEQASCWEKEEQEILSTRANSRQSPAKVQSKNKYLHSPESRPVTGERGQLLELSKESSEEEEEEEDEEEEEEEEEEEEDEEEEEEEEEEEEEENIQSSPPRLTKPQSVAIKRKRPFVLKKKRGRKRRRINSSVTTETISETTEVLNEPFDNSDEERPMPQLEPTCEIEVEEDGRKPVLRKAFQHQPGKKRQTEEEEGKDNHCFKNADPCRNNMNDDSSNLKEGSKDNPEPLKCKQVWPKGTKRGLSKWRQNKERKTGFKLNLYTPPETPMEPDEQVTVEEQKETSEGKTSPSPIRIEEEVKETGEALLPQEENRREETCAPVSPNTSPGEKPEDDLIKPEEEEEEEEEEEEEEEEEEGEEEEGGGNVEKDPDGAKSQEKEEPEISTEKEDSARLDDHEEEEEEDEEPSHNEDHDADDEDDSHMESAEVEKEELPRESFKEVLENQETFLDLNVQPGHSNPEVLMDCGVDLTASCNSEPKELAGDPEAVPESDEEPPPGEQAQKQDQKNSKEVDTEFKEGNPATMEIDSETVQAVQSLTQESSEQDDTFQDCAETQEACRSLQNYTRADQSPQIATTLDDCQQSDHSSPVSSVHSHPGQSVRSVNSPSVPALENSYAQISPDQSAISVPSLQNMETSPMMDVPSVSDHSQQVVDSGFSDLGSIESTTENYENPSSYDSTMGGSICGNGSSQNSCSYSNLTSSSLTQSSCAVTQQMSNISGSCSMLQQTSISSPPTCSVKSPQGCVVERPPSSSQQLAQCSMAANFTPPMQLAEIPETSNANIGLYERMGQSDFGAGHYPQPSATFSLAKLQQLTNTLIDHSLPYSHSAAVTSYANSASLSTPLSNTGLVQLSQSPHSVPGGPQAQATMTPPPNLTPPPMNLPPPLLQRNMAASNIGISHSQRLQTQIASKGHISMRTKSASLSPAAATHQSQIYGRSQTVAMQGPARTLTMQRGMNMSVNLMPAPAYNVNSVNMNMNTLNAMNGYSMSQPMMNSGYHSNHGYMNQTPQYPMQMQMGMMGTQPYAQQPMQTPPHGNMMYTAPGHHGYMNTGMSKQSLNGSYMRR

Histone acetyltransferase KAT6A, sequence (Q92794 whole entry, the tested form may be a part): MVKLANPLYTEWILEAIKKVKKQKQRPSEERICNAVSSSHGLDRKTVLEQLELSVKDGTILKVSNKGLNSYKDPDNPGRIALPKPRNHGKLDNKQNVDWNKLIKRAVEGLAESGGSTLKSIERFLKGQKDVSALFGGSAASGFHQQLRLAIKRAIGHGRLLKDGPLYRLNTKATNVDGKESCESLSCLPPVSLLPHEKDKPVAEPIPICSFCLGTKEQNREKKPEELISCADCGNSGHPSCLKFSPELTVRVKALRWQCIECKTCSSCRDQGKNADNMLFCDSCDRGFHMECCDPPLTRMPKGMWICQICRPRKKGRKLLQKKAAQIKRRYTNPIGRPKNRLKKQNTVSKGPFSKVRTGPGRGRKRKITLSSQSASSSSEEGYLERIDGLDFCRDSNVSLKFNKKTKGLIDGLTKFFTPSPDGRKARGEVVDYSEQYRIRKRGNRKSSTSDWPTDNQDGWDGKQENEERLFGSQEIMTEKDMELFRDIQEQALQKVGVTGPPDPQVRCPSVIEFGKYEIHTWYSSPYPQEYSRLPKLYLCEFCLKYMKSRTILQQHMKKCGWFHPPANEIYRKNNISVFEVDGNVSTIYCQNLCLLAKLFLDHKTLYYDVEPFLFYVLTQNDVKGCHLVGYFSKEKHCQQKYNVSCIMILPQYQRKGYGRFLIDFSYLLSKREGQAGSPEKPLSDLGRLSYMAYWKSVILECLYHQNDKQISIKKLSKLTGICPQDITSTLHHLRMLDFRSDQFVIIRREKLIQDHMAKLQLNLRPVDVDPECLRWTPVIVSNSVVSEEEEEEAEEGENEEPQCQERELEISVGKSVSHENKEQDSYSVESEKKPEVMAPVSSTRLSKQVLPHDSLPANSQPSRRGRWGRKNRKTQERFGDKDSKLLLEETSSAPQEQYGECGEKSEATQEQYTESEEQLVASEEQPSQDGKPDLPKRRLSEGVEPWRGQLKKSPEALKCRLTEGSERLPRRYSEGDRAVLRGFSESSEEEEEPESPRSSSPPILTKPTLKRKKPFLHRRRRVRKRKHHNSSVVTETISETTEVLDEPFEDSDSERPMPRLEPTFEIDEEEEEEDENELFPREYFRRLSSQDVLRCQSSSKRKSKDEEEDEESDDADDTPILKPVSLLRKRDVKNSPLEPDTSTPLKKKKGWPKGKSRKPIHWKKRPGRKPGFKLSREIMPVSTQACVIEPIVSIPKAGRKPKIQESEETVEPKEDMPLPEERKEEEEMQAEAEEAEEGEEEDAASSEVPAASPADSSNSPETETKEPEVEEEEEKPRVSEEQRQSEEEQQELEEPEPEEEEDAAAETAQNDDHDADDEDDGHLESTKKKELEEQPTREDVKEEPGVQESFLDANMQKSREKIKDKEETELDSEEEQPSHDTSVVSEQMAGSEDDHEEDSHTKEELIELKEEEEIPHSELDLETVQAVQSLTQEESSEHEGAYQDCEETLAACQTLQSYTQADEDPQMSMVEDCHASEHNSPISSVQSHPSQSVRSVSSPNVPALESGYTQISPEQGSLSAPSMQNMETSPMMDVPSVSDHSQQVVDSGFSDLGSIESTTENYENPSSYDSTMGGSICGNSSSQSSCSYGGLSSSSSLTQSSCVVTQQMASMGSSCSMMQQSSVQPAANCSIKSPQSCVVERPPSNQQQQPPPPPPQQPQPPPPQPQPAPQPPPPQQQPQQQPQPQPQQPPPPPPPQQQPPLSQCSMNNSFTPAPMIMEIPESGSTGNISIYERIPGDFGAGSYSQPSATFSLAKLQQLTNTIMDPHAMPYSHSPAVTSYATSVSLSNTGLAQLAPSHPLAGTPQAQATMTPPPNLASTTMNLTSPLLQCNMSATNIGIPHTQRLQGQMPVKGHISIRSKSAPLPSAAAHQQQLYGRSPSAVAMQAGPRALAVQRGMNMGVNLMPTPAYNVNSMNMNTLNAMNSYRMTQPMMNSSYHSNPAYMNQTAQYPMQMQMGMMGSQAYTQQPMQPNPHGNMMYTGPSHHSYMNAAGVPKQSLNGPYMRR

Row | IC50 [1] [nM] | IC50 [2] [nM] | Compound
1 | 14300 |  | CN(C)c1ccc2cc(C(=O)NS(=O)(=O)c3ccccc3-c3ccccc3)oc2c1C#N [US12357603, Example 64]
2 |  | 534 | COCCN(C)c1ccc2cc(C(=O)NS(=O)(=O)c3ccccc3-c3ccccc3)oc2c1 [US12357603, Example 39]
3 |  | 1060 | CCCN(C)c1ccc2cc(C(=O)NS(=O)(=O)c3ccccc3-c3ccccc3)oc2c1 [US12357603, Example 37]
4 | 903 |  | Cc1ccc2cccc(S(=O)(=O)NC(=O)c3cc4cc(C#N)c(N(C)C)cc4o3)c2n1 [US12357603, Example 209]
5 | 465 |  | CN(C)c1ccc2cc(C(=O)NS(=O)(=O)c3c(Cl)cccc3Cl)oc2c1 [US12357603, Example 98]
6 | 2550 | 5720 | CN(c1ccccc1)c1ccc2cc(C(=O)NS(=O)(=O)c3ccc(Cl)cc3Cl)oc2c1 [US12357603, Example 09]
7 | 4700 |  | CN(C)c1c(Br)cc2cc(C(=O)NS(=O)(=O)c3ccccc3-c3ccccc3)oc2c1F [US12357603, Example 206]
8 | 3650 | 112 | CN(c1ccc2cc(C(=O)NS(=O)(=O)c3ccccc3-c3ccccc3)oc2c1)C1CCCC1 [US12357603, Example 46]
9 | 187 |  | CCCc1ccccc1S(=O)(=O)NC(=O)c1cc2ccc(N(C)C)cc2o1 [US12357603, Example 52]
10 | 1390 | 810 | CCN(C)c1ccc2cc(C(=O)NS(=O)(=O)c3ccc(Cl)cc3Cl)oc2c1 [US12357603, Example 03]
11 | 1060 |  | CCOc1ccc(Br)cc1S(=O)(=O)NC(=O)c1cc2ccc(N(C)CCOC)cc2o1 [US12357603, Example 213]
12 | 92.8 | 52.2 | CN(C)c1ccc2cc(C(=O)NS(=O)(=O)c3cc(Cl)cc4cccnc34)oc2c1 [US12357603, Example 124]
13 | 13500 | > 20000 | O=C(NS(=O)(=O)c1ccccc1-c1ccccc1)c1cc2ccc(N3CCCC3=O)cc2o1 [US12357603, Example 62]
14 | 7760 |  | CC(C)Oc1ccccc1S(=O)(=O)NC(=O)c1cc2cc(Br)c(N(C)C)cc2o1 [US12357603, Example 208]
15 | 57.3 | 103 | CN(C)c1ccc2cc(C(=O)NS(=O)(=O)c3ccccc3-c3ccc(CO)cc3)oc2c1 [US12357603, Example 51]
